Results taken from EP1779117B1, “METHODS FOR MEASURING ADAMTS13 ACTIVITY ON THE SURFACE OF PLATELETS” (American Diagnostica Inc., priority 2004, dated 2006).
Starred links: 1 amine or outer side, 2 acyl side, 3 side chain; linkers in the order of their positions; H or OH if unused. Residues, ends and D or L forms follow the SMILES beside them. *: point of attachment. EDANS = O=S(=O)(O)c1cccc2c(NCCN*)cccc12; pNA = O=[N+]([O-])c1ccc(N*)cc1; AMC = Cc1cc(=O)oc2cc(N*)ccc12; Suc = O=C(CCC(=O)[*:2])[*:1]

Tests used:
ADAMTS13 = assay: Cleavage of peptidyl substrates by ADAMTS13 in PRP (optical density / fluorescence); format: biochemical; conditions: for cleavage by ADAMTS13 in PRP: normal PRP 20 µl, 10 mM Tris-HCl pH 8.0, 37° C, Ex 360 nm/ Em 460 nm
Procedure: As discussed above, Furlan et al. reported that some peptidyl-pNA moieties, such as XLY-pNA and XVY-pNA, were not substrates for ADAMTS13. We prepared LVY-pNA and tested it for its ability to be cleaved by ADAMTS 13. The results shown in Figure 2 confirm the findings of Furlan et al., i.e., LVY-pNA was not cleaved by ADAMTS13.
In order to determine the effect of modifying the length of the peptide sequence conjugated to the AMC fluorochrome, normal PRP (20 µl) was incubated at 37° C with a final concentration of 0.8 mM Suc-LLVY-AMC or LVY-AMC in 10 mM Tris-HCl pH 8.0 buffer in total volume of 200 µl. Fluorescence was measured using a microtiter fluorophotometric plate reader (Ex 360 nm/ Em 460 nm).

[1] = system: ADAMTS13 found on platelets; assay: FRET substrate cleavage by isolated platelets; format: biochemical; conditions: 8 µg/ml substrate, 10mM Tris-HCl pH 8.0, 37°C, Ex 360 nm/ Em 440 nm, Figure 4
Procedure: ADAMTS13 activity was measured using a fluorescent substrate attached to a donor moiety and an acceptor moiety that functions by fluorescence resonance energy transfer (FRET). The ADAMTS 13 selective substrate, NH2-Arg-Lys(DABCYL)-NLVYMVTGD(EDANS)-Arg-COOH, was used in this example. The NLVYMVTGD peptide sequence of this substrate is homologous to the ADAMTS13 cleavage site on VWF. The intact peptidyl substrate has low fluorescence, due to quenching of the […]. Cleavage of the substrate between the tyrosine and methionine of the peptide sequence results in an increase in fluorescence.
Isolated platelets in 10mM Tris-HCl pH 8.0 assay buffer were incubated with a final concentration of 8 µg/ml of the FRET substrate at 37°C. The fluorescence was measured in a spectrofluorometric plate reader (Ex 360 nm/ Em 440 nm). […] The skilled artisan can design other FRET substrates for measuring ADAMTS 13 activity using his or her own knowledge and the teachings herein.

Cc1cc(=O)oc2cc(NC(=O)[C@H](Cc3ccc(O)cc3)NC(=O)[C@@H](NC(=O)[C@@H](N)CC(C)C)C(C)C)ccc12 [LVY-AMC, Leu-Val-Tyr-AMC] (H-Leu-Val-Tyr-{AMC})
cleavage by ADAMTS13 in PRP (ADAMTS13; 0.8 mM substrate, Figure 3): cleaved

CC(C)C[C@H](N)C(=O)N[C@H](C(=O)N[C@@H](Cc1ccc(O)cc1)C(=O)Nc1ccc([N+](=O)[O-])cc1)C(C)C [LVY-pNA] (H-Leu-Val-Tyr-pNA)
cleavage by ADAMTS13 (ADAMTS13; LVY-pNA tested as substrate, Figure 2): not cleaved

NH2-Arg-Lys-(DABCYL)- Asn-Leu- Val-Tyr-Met- Val- Thr-Gly-Asp-(EDANS)-Arg-COOH ({H2N-Arg-K(DABCYL)}-NLVYMVTGD(EDANS)R-OH; also: EDANS after Asp (on Asp side chain or between Asp and Arg))
fluorescence on incubation with platelets (cleavage of FRET substrate) [1]: increased fluorescence over time

Cc1cc(=O)oc2cc(NC(=O)[C@H](Cc3ccc(O)cc3)NC(=O)[C@@H](NC(=O)[C@H](CC(C)C)NC(=O)[C@H](CC(C)C)NC(=O)CCC(=O)O)C(C)C)ccc12 [Suc-LLVY-AMC, Suc-Leu-Leu-Val-Tyr-AMC] (Suc-LLVY-{AMC})
cleavage by ADAMTS13 in PRP (ADAMTS13; 0.8 mM substrate, Figure 3): cleaved
fluorescence signal over time compared to the other AMC substrate (ADAMTS13; normal PRP, 0.8 mM substrate, 37° C, Figure 3): higher signal over time
